According to patent US9988644B2, “Compounds for improved viral transduction” (bluebird bio, Inc., priority 2011, dated 2018):

Legend:
CD34+ cells [1] = assay: 7-Day liquid culture, FACS for GFP after transduction with GFP+ lentivirus in presence of dmPGE2; assay type: cell-based, human; settings: for % Positive (GFP): ~1 week in culture
Method: (§1) One vial of CD34+ cells (AllCells) were thawed by incubating at 37° C. for 1-2 minutes and contents were transferred to 10 mL Stem Cell Growth Media (hereafter referred to as SCGM) in a 15-mL conical tube. Cells were spun for 5 minutes at 1500 RPM in a standard tabletop centrifuge, resuspended in 10 mL SCGM and counted on a hemacytometer. A volume correlating with an appropriate number of cells was transferred to a fresh 15-mL conical tube, and again spun for 5 minutes at 1500 RPM. Cells were resuspended to the desired cell concentration in SCGM+1× cytokines (100 ng/mL SCF, 100 ng/mL TPO, 100 ng/mL FltL, and 30 ng/mL IL-3), and plated on a sterile non-adherent surface at 37° C. in a standard humidified tissue culture incubator (5% CO2).
(§2) Pre-stimulated cells (Example 1) were counted after 18-24 hours of culture. The cells were collected and spun for 5 minutes at 1500 RPM. 1.2×10^6 pre-stimulated CD34^+ cells were resuspended in 60 uL 10× cytokines (1000 ng/mL SCF, 1000 ng/mL TPO, 1000 ng/mL FltL, and 300 ng/mL IL-3), 7.8 uL protamine sulfate, 111 uL viral supernatant, and 361.2 uL SCGM. 90 uL cell/virus suspension (about 200,000 cells) was added to each well of a standard non-adherent 96-well plate. dmPGE2 was added during this viral transduction step at a final concentration of 100 uM, 50 uM, 25 uM, 12.5 uM, 1 uM, or 0 uM.
(§3) Aliquots of 10 mM dmPGE2 in DMSO were prepared from 1 mg previously processed dmPGE2 (Cayman Chemicals). Briefly, air was pipetted into the vial of dmPGE2 until methyl acetate was evaporated. 263 uL DMSO was added to the PGE2 remaining in the vial, and aliquots of 25 uL were added to 1.5 mL Eppendorf tubes and stored at −80° C. 10× working stock solutions were prepared by serial dilution of dmPGE2 in SCGM, and were then added to cells at appropriate working concentrations, according to Table 2. Cells were then incubated at 37° C. in a standard humidified tissue culture incubator (5% CO2).
(§4) After 24 hours of culture with virus and dmPGE2, cells were washed prior to subsequent functional validation assays. Washing was performed by transferring cells to a 96-well U-bottom plate and spinning for 5 minutes at 1500 RPM in a standard tabletop centrifuge. Media was aspirated and cells were resuspended in 200 uL SCGM. Cells were spun again for 5 minutes at 1500 RPM and media was aspirated. Cells were again resuspended in 200 uL SCGM then spun for 5 minutes at 1500 RPM, and again the media was aspirated. Particular functional validation assays are described below.
(§5) Washed cells were resuspended in 200 uL SCGM+1× cytokines (as described in Example 1) and transferred to a standard 12-well non-adherent tissue culture plate containing an additional 800 uL SCGM+1× cytokines Cells were maintained for an additional 6 days in a standard humidified tissue culture incubator (5% CO2) and then subjected Vector Copy Number analysis (Example 5) and FACS analysis. For FACS analysis, cells were assayed for the presence of a virally-encoded transgene, green fluorescent protein (GFP). The frequency of the virally-labeled cells within the pool of cultured cells was quantified as the frequency of GFP+ cells within the population. The mean fluorescence intensity of labeled cells was quantified.
Tables 3A-C indicate the dose-response of dmPGE2 in promoting viral transduction of CD34+ cells for three separate experiments. CD34+ cells were thawed and pre-stimulated with SCF, TPO, FltL, and IL3, then transduced (A) with GFP+ lentivirus at a multiplicity of infection of 25, (B) with GFP+ lentivirus at a multiplicity of infection of 5, or (C) transduced with an ALD (ABCD1)-expressing lentivirus at a multiplicity of infection of 25. Cells were exposed to dmPGE2 during the viral transduction step (24-48 hours of culture). Cells were then washed and analyzed by flow cytometry and PCR after approximately 1 week in culture. […]

CD34+ cells [2] = assay: FACS staining for ALD after transduction with ALD (ABCD1)-expressing lentivirus in presence of dmPGE2; assay type: cell-based, human; settings: ABCD1 MOI 25
Method: as §1, §2, §3, §4, §5
Tables 3A-C indicate the dose-response of dmPGE2 in promoting viral transduction of CD34+ cells for three separate experiments. […] Cells were then washed and analyzed by flow cytometry and PCR after approximately 1 week in culture. […]

CD34+ cells [3] = assay: Vector Copy Number analysis (qRT-PCR, viral LTR vs human beta-actin) after GFP+ lentivirus transduction; assay type: cell-based
Method: as §2, §5
Briefly, total genomic DNA was isolated from cells through standard protocols (for example, through DNEasy columns from Qiagen). Genomic DNA was subjected to quantitative real-time polymerase chain reaction (qRT-PCR) with TaqMan probes for viral LTR and human beta-actin. The Ct values for viral signal and beta-actin signal were normalized to a standardized control, and the number of viral copies per copy of beta actin were calculated. A linear relationship between the vector copy number and the mean fluorescence intensity (Example 4) was observed when a viral construct that encodes GFP was used.
Tables 3A-C indicate the dose-response of dmPGE2 in promoting viral transduction of CD34+ cells for three separate experiments. CD34+ cells were thawed and pre-stimulated with SCF, TPO, FltL, and IL3, then transduced (A) with GFP+ lentivirus at a multiplicity of infection of 25, (B) with GFP+ lentivirus at a multiplicity of infection of 5, or (C) transduced with an ALD (ABCD1)-expressing lentivirus at a multiplicity of infection of 25. Cells were exposed to dmPGE2 during the viral transduction step (24-48 hours of culture). Cells were then washed and analyzed by flow cytometry and PCR after approximately 1 week in culture. The percentage of cells positive for GFP (A, B) or ALD (C) via FACS staining is indicated, along with the mean fluorescent intensity (MFI) and vector copy number (VCN) (A, B).

[4] = dmPGE2 12.5 uM during transduction, GFP MOI 5
[5] = dmPGE2 12.5 uM during transduction, GFP MOI 25
[6] = dmPGE2 25 uM during transduction, GFP MOI 5
[7] = dmPGE2 50 uM during transduction, GFP MOI 5
[8] = dmPGE2 50 uM during transduction, GFP MOI 25
[9] = dmPGE2 100 uM during transduction, GFP MOI 5
[10] = dmPGE2 100 uM during transduction, GFP MOI 25

**Q.** Which “% Positive (GFP)” value (CD34+ cells [1]; dmPGE2 12.5 uM during transduction (24-48 hours of culture), GFP MOI 5) does the source give for `CCCCC(C)(C)[C@H](O)/C=C/[C@H]1[C@H](O)CC(=O)[C@@H]1C/C=C\CCCC(=O)O` [dmPGE2, 16,16-dimethyl PGE2] here?
**A.** 17.84%

**Q.** What about the “% Positive (GFP)” value (CD34+ cells [1]; dmPGE2 12.5 uM during transduction (24-48 hours of culture), GFP MOI 25) of the same compound?
**A.** 54.71%

**Q.** What about the “MFI (mean fluorescent intensity)” value (CD34+ cells [1]; [4]) of the same compound?
**A.** 530,218.50

**Q.** And the “MFI (mean fluorescent intensity)” value (CD34+ cells [1]; [5])?
**A.** 759,442.75

**Q.** What about the “% Positive (GFP)” value (CD34+ cells [1]; dmPGE2 25 uM during transduction (24-48 hours of culture), GFP MOI 5) of the same compound?
**A.** 18.69%

**Q.** And the “% Positive (GFP)” value (CD34+ cells [1]; dmPGE2 25 uM during transduction (24-48 hours of culture), GFP MOI 25)?
**A.** 59.99%

**Q.** And the “MFI (mean fluorescent intensity)” value (CD34+ cells [1]; [6])?
**A.** 562,428.00

**Q.** And the “% Positive (GFP)” value (CD34+ cells [1]; dmPGE2 50 uM during transduction (24-48 hours of culture), GFP MOI 5)?
**A.** 36.80%

**Q.** What about the “% Positive (GFP)” value (CD34+ cells [1]; dmPGE2 50 uM during transduction (24-48 hours of culture), GFP MOI 25) of the same compound?
**A.** 67.62%

**Q.** What about the “MFI (mean fluorescent intensity)” value (CD34+ cells [1]; [7]) of the same compound?
**A.** 656,703.50

**Q.** And the “MFI (mean fluorescent intensity)” value (CD34+ cells [1]; [8])?
**A.** 977,806.75

**Q.** What about the “% Positive (GFP)” value (CD34+ cells [1]; dmPGE2 100 uM during transduction (24-48 hours of culture), GFP MOI 5) of the same compound?
**A.** 42.97%

**Q.** What about the “% Positive (GFP)” value (CD34+ cells [1]; dmPGE2 100 uM during transduction (24-48 hours of culture), GFP MOI 25) of the same compound?
**A.** 81.53%

**Q.** What about the “MFI (mean fluorescent intensity)” value (CD34+ cells [1]; [9]) of the same compound?
**A.** 732,716.25

**Q.** What about the “MFI (mean fluorescent intensity)” value (CD34+ cells [1]; [10]) of the same compound?
**A.** 1,513,504.00

**Q.** What about the “% Positive (ALD via FACS staining)” value (CD34+ cells [2]; dmPGE2 1 uM during transduction (24-48 hours of culture)) of the same compound?
**A.** 34.13%

**Q.** And the “% Positive (ALD via FACS staining)” value (CD34+ cells [2]; dmPGE2 12.5 uM during transduction (24-48 hours of culture))?
**A.** 45.36%

**Q.** What about the “% Positive (ALD via FACS staining)” value (CD34+ cells [2]; dmPGE2 25 uM during transduction (24-48 hours of culture)) of the same compound?
**A.** 43.76%

**Q.** What about the “% Positive (ALD via FACS staining)” value (CD34+ cells [2]; dmPGE2 50 uM during transduction (24-48 hours of culture)) of the same compound?
**A.** 56.10%

**Q.** What about the “% Positive (ALD via FACS staining)” value (CD34+ cells [2]; dmPGE2 100 uM during transduction (24-48 hours of culture)) of the same compound?
**A.** 72.26%

**Q.** And the “VCN (vector copy number)” value (CD34+ cells [3]; [4])?
**A.** 0.18

**Q.** And the “VCN (vector copy number)” value (CD34+ cells [3]; [5])?
**A.** 1.5

**Q.** What about the “VCN (vector copy number)” value (CD34+ cells [3]; [6]) of the same compound?
**A.** 0.21

**Q.** And the “VCN (vector copy number)” value (CD34+ cells [3]; dmPGE2 25 uM during transduction, GFP MOI 25)?
**A.** 1.7

**Q.** What about the “VCN (vector copy number)” value (CD34+ cells [3]; [7]) of the same compound?
**A.** 0.715

**Q.** And the “VCN (vector copy number)” value (CD34+ cells [3]; [8])?
**A.** 2.2

**Q.** And the “VCN (vector copy number)” value (CD34+ cells [3]; [9])?
**A.** 0.83

**Q.** And the “VCN (vector copy number)” value (CD34+ cells [3]; [10])?
**A.** 3.55
